Data on two compounds can be found in patent US20030235634A1, “Extraction of non-polar isothiocyanates from plants and dietary supplements containing same” (ACCESS BUSINESS GROUP INTERNATIONAL LLC., priority 2002, published 2003).

Series [1] can be described thus: Dissolution of purchased BITC and PEITC in safflower oil (how much can be stored in the oil). Type of series: physicochemical. As to conditions: composition in safflower oil (78.91 % volume oil). From the text:
BITC and PEITC were purchased from Aldrich (Sigma-Aldrich, Milwaukee, Wis.) and dissolved in safflower oil to determine how much of the non-polar isothiocyanates could be stored in the oil.

A further series is described as follows: Solubility in water. As to the method: Garden cress powder, prepared by drying at 45° C. and containing about […] BITC, and watercress powder, prepared by drying at 50° C. and containing about […] PEITC, were mixed in equal parts. From the mixture, 500 mg were added to a 50 mL conical vial to which 10 mL of water was added and the mixture homogenized for 2 minutes. The mixture was extracted twice with 10 mL safflower oil using homogenization at level 6 (Omni 5000 Mixer) for one minute and centrifuged for 3 minutes at 8,000×g. The oil fractions were collected, pooled and the volume brought up to 25 mL.

Like-named read-outs stand apart in the source and are kept apart here.

On to `S=C=NCc1ccccc1` [BITC, Benzyl isothiocyanate], for which, in series [1], the “% Volume” value came out at 11.50 % Volume and the “ppm (mg/L)” value was 129,430 ppm (mg/L). The solubility in water entry in the series “Solubility in water” (water, no test described) is “not soluble in water”.
`S=C=NCCc1ccccc1` [PEITC, phenethyl isothiocyanate]: in series [1], the “% Volume” value stood at 9.59 % Volume and the “ppm (mg/L)” value is listed as 104,540 ppm (mg/L). Further, the solubility in water entry in the series “Solubility in water” is listed as “not soluble in water”.
